Data taken from US8362000B2, “Azetidinyl diamides as monoacylglycerol lipase inhibitors” (Janssen Pharmaceutica NV, priority 2009, dated 2013).
Where a chain is given by its changes, count along the chain named. Read-outs that look alike come from different tables or passages of the source.

Legend:
[1] = biological target: T1, purified wild type MGL (wt-MGLL 6H-11-313) (Homo sapiens, UniProt Q99685)
T1 sequence (Q99685 1-303): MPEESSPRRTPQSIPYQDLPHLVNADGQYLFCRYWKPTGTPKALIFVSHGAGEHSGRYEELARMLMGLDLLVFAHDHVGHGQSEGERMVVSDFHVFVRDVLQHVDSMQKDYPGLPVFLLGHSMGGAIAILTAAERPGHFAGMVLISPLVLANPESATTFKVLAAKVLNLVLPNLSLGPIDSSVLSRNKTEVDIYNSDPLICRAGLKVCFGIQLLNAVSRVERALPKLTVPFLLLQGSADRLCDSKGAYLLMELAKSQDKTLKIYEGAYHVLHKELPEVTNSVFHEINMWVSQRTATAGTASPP

MGL = biological target: T2, MGL (Rattus norvegicus, UniProt Q8R431); experiment: 2-AG accumulation assay in rat brain homogenate; type: biochemical; conditions: read-out: Rat Brain 2AG % VehCntrl (%) @ 1 μM
T2 construct: one g rat brain was homogenized using a Polytron homogenizer; from tissue; host or cells: rat brain homogenate
T2 sequence (Q8R431 1-303): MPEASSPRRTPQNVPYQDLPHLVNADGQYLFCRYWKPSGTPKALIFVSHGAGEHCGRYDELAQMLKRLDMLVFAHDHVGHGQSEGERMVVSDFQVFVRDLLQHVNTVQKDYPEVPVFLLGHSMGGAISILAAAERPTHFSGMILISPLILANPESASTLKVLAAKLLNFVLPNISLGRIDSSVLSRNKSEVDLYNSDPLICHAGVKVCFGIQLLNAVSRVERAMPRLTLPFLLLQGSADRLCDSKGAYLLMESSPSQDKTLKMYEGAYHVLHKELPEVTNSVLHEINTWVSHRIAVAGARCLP

mutant MGL = biological target: T3, mutant MGL (Homo sapiens, UniProt Q99685, L169S/L176S); experiment: MGL ThermoFluor assay - mutant; type: binding
T3 sequence (Q99685 1-303 L169S/L176S): T1 sequence (Q99685 1-303) with L169S, L176S

[2] = rat brain homogenate, compound 1 μM, 2-AG accumulation as percent of vehicle
[3] = ThermoFluor concentration-response, read-out: MGL mutant ThermoFluor Kd
[4] = ThermoFluor thermal stability binding assay, read-out: MGL mutant ThermoFluor Kd
[5] = ThermoFluor, compound concentration measured by qNMR, read-out: MGL mutant ThermoFluor qKd (μM) (using qNMR conc.)
[6] = ThermoFluor, compound concentration measured by qNMR, read-out: MGL mutant ThermoFluor qKd (using qNMR conc.)

SMILES | IC50 [1] [nM] | 2-AG accumulation, % of vehicle control at 1 µM (MGL; [2]) [%] | Kd (mutant MGL; [3]) [µM] | also measured
O=C(c1ccns1)N1CC(N2CCN(C(=O)c3cc4cc(C(F)(F)F)ccc4s3)CC2)C1 [Cpd 703, 1-[1-(Isothiazol-5-ylcarbonyl)azetidin-3-yl]-4-{[5-(trifluoromethyl)-1-benzothiophen-2-yl]carbonyl}piperazine] | 88 | 346 | 0.05 | –
O=C(c1ccccc1)N1CCN(C2CN(C(=O)c3ccc4c(-c5ccc(C(F)(F)F)cc5)c[nH]c4c3)C2)CC1 [Cpd 634] | 57 | 301 | 0.054 | –
O=C(c1ccccc1)N1CCN(C2CN(C(=O)c3ccc(S(=O)(=O)c4cccc(C(F)(F)F)c4)cc3)C2)CC1 [Cpd 508] | 107 | 119 | 0.162 | –
O=C(c1ccoc1)N1CCN(C2CN(C(=O)c3ccc(-c4ccccc4)cc3)C2)CC1 [Cpd 1140] | 27 | 200 | – | Kd (mutant MGL; [4]): 0.112 µM
Cc1cn(-c2cccc(OC(F)(F)F)c2)c2ccc(C(=O)N3CC(N4CCN(C(=O)c5nccs5)CC4)C3)cc12 [Cpd 1068] | 7 | 849 | – | Kd (mutant MGL; [5]): 0.002 µM
O=C(c1nccs1)N1CCN(C2CN(C(=O)c3cccc4oc(-c5ccccc5)nc34)C2)CC1 [Cpd 1190] | 99 | 126 | – | Kd (mutant MGL; [4]): 0.008 µM
COc1ccc(C(=O)N2CC(N3CCN(C(=O)c4nccs4)CC3)C2)cc1-c1ccccc1 [Cpd 1168] | 53 | 780 | 0.067 | –
O=C(c1ccc(Oc2cccc(C(F)(F)F)c2)nc1)N1CC(N2CCN(C(=O)c3nccs3)CC2)C1 [Cpd 660] | 10 | 410 | 0.065 | –
Cc1cc(-c2ccc(Cl)c(C(F)(F)F)c2)ccc1C(=O)N1CC(N2CCN(C(=O)c3cscn3)CC2)C1 [Cpd 254, 1-(1-{[4′-Chloro-3-methyl-3′-(trifluoromethyl)biphenyl-4-yl]carbonyl}azetidin-3-yl)-4-(1,3-thiazol-4-ylcarbonyl)piperazine] | < 5 | 544 | – | Kd (mutant MGL; [4]): 0.0059 µM
O=C(c1nccs1)N1CCN(C2CN(C(=O)c3sc4cc(Cl)ccc4c3C(F)(F)F)C2)CC1 [Cpd 664] | 11 | 498 | 0.006 | –
O=C(c1cc(F)cc(-c2ccccc2)c1)N1CC(N2CCN(C(=O)c3nccs3)CC2)C1 [Cpd 1104, 1-{1-[(5-Fluorobiphenyl-3-yl)carbonyl]azetidin-3-yl}-4-(1,3-thiazol-2-ylcarbonyl)piperazine] | 13 | 334 | 0.199 | –
Cc1cn(-c2ccccc2)c2ccc(C(=O)N3CC(N4CCN(C(=O)c5cscn5)CC4)C3)cc12 [Cpd 1152] | 38 | 394 | – | Kd (mutant MGL; [4]): 0.007 µM
O=C(c1ccccc1)N1CCN(C2CN(C(=O)c3ccc(Sc4cccc(C(F)(F)F)c4)cc3)C2)CC1 [Cpd 430] | 23.6 | 114 | 0.0667 | –
Cc1ccc(-n2ccc3cc(C(=O)N4CC(N5CCN(C(=O)c6ccc[nH]6)CC5)C4)ccc32)cn1 [Cpd 1181, 1-(6-Methylpyridin-3-yl)-5-({3-[4-(1H-pyrrol-2-ylcarbonyl)piperazin-1-yl]azetidin-1-yl}carbonyl)-1H-indole] | 77 | 288 | – | Kd (mutant MGL; [6]): 0.278 µM
O=C(c1ccc2c(ccn2-c2cc(F)c(F)c(F)c2)c1)N1CC(N2CCN(C(=O)c3cscn3)CC2)C1 [Cpd 1055] | 5 | 701 | – | Kd (mutant MGL; [5]): 0.02 µM
Cc1cc(C(=O)N2CC(N3CCN(C(=O)c4nccs4)CC3)C2)sc1-c1ccc(F)cc1 [Cpd 1353] | < 5 | 545 | – | Kd (mutant MGL; [5]): 0.018 µM
O=C(c1ccc2c(c1)CCN(c1ccccc1)C2)N1CC(N2CCN(C(=O)c3nccs3)CC2)C1 [Cpd 883] | < 5 | 767 | – | Kd (mutant MGL; [4]): 0.059 µM

SMILES | IC50 [1] [nM] | 2-AG accumulation, % of vehicle control at 1 µM (MGL; [2]) [%] | Kd (mutant MGL; [3]) [µM] | also measured
Cn1ccc2cc(C(=O)N3CC(N4CCN(C(=O)c5nccs5)CC4)C3)cc(-c3cccc(C(F)(F)F)c3)c21 [Cpd 1060] | 6 | 671 | – | Kd (mutant MGL; [5]): 0.032 µM
O=C(c1cc2cc(-c3ccccc3)ccc2o1)N1CC(N2CCN(C(=O)c3nccs3)CC2)C1 [Cpd 1342] | < 5 | 346 | – | Kd (mutant MGL; [4]): 0.136 µM
O=C(c1nccs1)N1CCN(C2CN(C(=O)c3sc4cc(-c5ccc(C(F)(F)F)cc5)ccc4c3F)C2)CC1 [Cpd 1063] | 7 | 846 | 0.003 | –
O=C(c1cscn1)N1CCN(C2CN(C(=O)c3sc4cc(-c5ccccc5)ccc4c3C(F)(F)F)C2)CC1 [Cpd 1098, 1-(1-{[6-Phenyl-3-(trifluoromethyl)-1-benzothiophen-2-yl]carbonyl}azetidin-3-yl)-4-(1,3-thiazol-4-ylcarbonyl)piperazine] | 12 | 296 | 0.031 | –
O=C(c1ccc2c(ccn2-c2ccc(C(F)(F)F)nc2)c1)N1CC(N2CCN(C(=O)c3ccc[nH]3)CC2)C1 [Cpd 1062, 5-({3-[4-(1H-Pyrrol-2-ylcarbonyl)piperazin-1-yl]azetidin-1-yl}carbonyl)-1-[6-(trifluoromethyl)pyridin-3-yl]-1H-indole] | 7 | 451 | – | Kd (mutant MGL; [6]): 0.1 µM
Cc1c(C(=O)N2CC(N3CCN(C(=O)c4ccccc4)CC3)C2)sc2ccc(C(F)(F)F)cc12 [Cpd 504] | 10 | 178 | – | Kd (mutant MGL; [4]): 0.024 µM
O=C(c1ccccc1)N1CCN(C2CN(C(=O)c3ccc(Cc4cccc(C(F)(F)F)c4)cc3)C2)CC1 [Cpd 547] | < 5 | 652 | 0.072 | –
COc1ccc(C(=O)N2CC(N3CCN(C(=O)c4cscn4)CC3)C2)cc1-c1ccccc1 [Cpd 1265] | 1050 | 192 | 0.66 | –
O=C(c1nn(-c2ccc(Cl)cc2Cl)c2c1CCC/C2=C\c1ccc(Cl)cc1)N1CC(N2CCN(C(=O)C(F)(F)F)CC2)C1 [Cpd 1020] | 63 | – | – | 2-AG accumulation, % of vehicle control at 1 µM (MGL): 135%; Kd (mutant MGL; MGL mutant ThermoFluor Kd, ThermoFluor concentration-response): 3 µM
Cc1cn(-c2cccc(F)c2)c2ccc(C(=O)N3CC(N4CCN(C(=O)c5nccs5)CC4)C3)cc12 [Cpd 1368] | < 5 | 859 | – | Kd (mutant MGL; [5]): 0.001 µM
O=C(c1nccs1)N1CCN(C2CN(C(=O)c3sc4ccc(Cl)cc4c3C(F)(F)F)C2)CC1 [Cpd 896, 1-(1-{[5-Chloro-3-(trifluoromethyl)-1-benzothiophen-2-yl]carbonyl}azetidin-3-yl)-4-(1,3-thiazol-2-ylcarbonyl)piperazine] | < 5 | 648 | 0.008 | –
O=C(c1ccc(Oc2cccc(Cl)c2)nc1)N1CC(N2CCN(C(=O)c3nccs3)CC2)C1 [Cpd 683] | 31 | 335 | 0.039 | –
O=C(c1nccs1)N1CCN(C2CN(C(=O)c3cc4ccn(-c5ccc(F)cc5)c4cc3F)C2)CC1 [Cpd 1349] | < 5 | 846 | 0.005 | Kd (mutant MGL; compound concentration measured by qNMR, read-out: MGL mutant ThermoFluor qKd (using qNMR conc.)): 0.006 µM
O=C(c1ccc2c(c1)CCN(C(=O)c1cccs1)C2)N1CC(N2CCN(C(=O)c3nccs3)CC2)C1 [Cpd 665] | 13 | 507 | – | Kd (mutant MGL; [4]): 0.058 µM
O=C(c1ccc2c(ccn2-c2ccccn2)c1)N1CC(N2CCN(C(=O)c3nccs3)CC2)C1 [Cpd 1135, 1-Pyridin-2-yl-5-({3-[4-(1,3-thiazol-2-ylcarbonyl)piperazin-1-yl]azetidin-1-yl}carbonyl)-1H-indole] | 25 | 884 | – | Kd (mutant MGL; [6]): 0.015 µM
O=C(c1ccccc1)c1ccc(C(=O)N2CC(N3CCN(C(=O)c4nccs4)CC3)C2)cc1 [Cpd 1017] | 35 | 307 | 0.049 | –
